Results: PubChem BioAssay (NCI)
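Method: 48-hour compound exposure of cells in 96-well plates, five concentrations, linear interpolation of endpoints. TGI denotes the concentration required for complete inhibition of growth.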

Assays:
Test in all cases: NCI-60 cell line screen, 48 h
MCF7 breast = test system: MCF7 breast
SNB-75 CNS = test system: SNB-75 CNS
OVCAR-3 ovarian = test system: OVCAR-3 ovarian
786-0 renal = test system: 786-0 renal
SR leukemia = test system: SR leukemia
MDA-MB-231 breast = test system: MDA-MB-231 breast
NCI-H460 lung = test system: NCI-H460 lung
SK-MEL-2 melanoma = test system: SK-MEL-2 melanoma
ACHN renal = test system: ACHN renal
SF-539 CNS = test system: SF-539 CNS
OVCAR-4 ovarian = test system: OVCAR-4 ovarian
HL-60(TB) leukemia = test system: HL-60(TB) leukemia
BT-549 breast = test system: BT-549 breast
COLO 205 colon = test system: COLO 205 colon
IGROV1 ovarian = test system: IGROV1 ovarian
NCI-H23 lung = test system: NCI-H23 lung
OVCAR-8 ovarian = test system: OVCAR-8 ovarian
NCI-H522 lung = test system: NCI-H522 lung
CAKI-1 renal = test system: CAKI-1 renal
SW-620 colon = test system: SW-620 colon
CCRF-CEM leukemia = test system: CCRF-CEM leukemia
MALME-3M melanoma = test system: MALME-3M melanoma
SF-295 CNS = test system: SF-295 CNS
RXF 393 renal = test system: RXF 393 renal
MDA-MB-435 = test system: MDA-MB-435
U251 CNS = test system: U251 CNS
LOX IMVI melanoma = test system: LOX IMVI melanoma
MOLT-4 leukemia = test system: MOLT-4 leukemia
DU-145 prostate = test system: DU-145 prostate
HOP-62 NSCLC = test system: HOP-62 NSCLC
OVCAR-5 ovarian = test system: OVCAR-5 ovarian
HCC-2998 colon = test system: HCC-2998 colon
RPMI-8226 leukemia = test system: RPMI-8226 leukemia
MDA-N = test system: MDA-N
K-562 leukemia = test system: K-562 leukemia
PC-3 prostate = test system: PC-3 prostate
TK-10 renal = test system: TK-10 renal
M14 melanoma = test system: M14 melanoma
A498 renal = test system: A498 renal
NCI-H226 lung = test system: NCI-H226 lung
HT29 colon = test system: HT29 colon
T-47D breast = test system: T-47D breast
HCT-116 colon = test system: HCT-116 colon
A549 NSCLC = test system: A549 NSCLC
SN12C renal = test system: SN12C renal
NCI/ADR-RES ovarian = test system: NCI/ADR-RES ovarian
UO-31 renal = test system: UO-31 renal
EKVX NSCLC = test system: EKVX NSCLC
HOP-92 NSCLC = test system: HOP-92 NSCLC
UACC-257 melanoma = test system: UACC-257 melanoma
KM12 colon = test system: KM12 colon
HS 578T breast = test system: HS 578T breast
HCT-15 colon = test system: HCT-15 colon
SK-MEL-28 melanoma = test system: SK-MEL-28 melanoma
SF-268 CNS = test system: SF-268 CNS
SK-OV-3 ovarian = test system: SK-OV-3 ovarian
SK-MEL-5 melanoma = test system: SK-MEL-5 melanoma
SNB-19 CNS = test system: SNB-19 CNS

Work on `COc1cc2c(cc1OC)C(=O)/C(=C/c1ccccc1)CC2` yielded a TGI (MCF7 breast) greater than 100 µM, a TGI (SNB-75 CNS) greater than 100 µM and a TGI (OVCAR-3 ovarian) greater than 100 µM. It also gave a TGI (786-0 renal) greater than 100 µM, a TGI (SR leukemia) greater than 100 µM and a TGI (MDA-MB-231 breast) greater than 100 µM. It also gave a TGI (NCI-H460 lung) greater than 100 µM, a TGI (SK-MEL-2 melanoma) of 29.8 µM and a TGI (ACHN renal) greater than 100 µM. It also gave a TGI (SF-539 CNS) greater than 100 µM, a TGI (OVCAR-4 ovarian) greater than 100 µM and a TGI (HL-60(TB) leukemia) of 17.2 µM. The TGI (BT-549 breast) was 74.1 µM, the TGI (COLO 205 colon) was 38.8 µM and the TGI (IGROV1 ovarian) was greater than 100 µM. The TGI (NCI-H23 lung) was greater than 100 µM, the TGI (OVCAR-8 ovarian) was greater than 100 µM and the TGI (NCI-H522 lung) was greater than 100 µM. For the same compound, the TGI (CAKI-1 renal) was 48.3 µM, the TGI (SW-620 colon) was greater than 100 µM and the TGI (CCRF-CEM leukemia) was greater than 100 µM. For the same compound, the TGI (MALME-3M melanoma) was greater than 100 µM, the TGI (SF-295 CNS) was 41.1 µM and the TGI (RXF 393 renal) was greater than 100 µM. For the same compound, the TGI (MDA-MB-435) was greater than 100 µM, the TGI (U251 CNS) was greater than 100 µM and the TGI (LOX IMVI melanoma) was greater than 100 µM. For the same compound, the TGI (MOLT-4 leukemia) was 71.2 µM, the TGI (DU-145 prostate) was greater than 100 µM and the TGI (HOP-62 NSCLC) was greater than 100 µM. For the same compound, the TGI (OVCAR-5 ovarian) was greater than 100 µM, the TGI (HCC-2998 colon) was 54.9 µM and the TGI (RPMI-8226 leukemia) was greater than 100 µM. For the same compound, the TGI (MDA-N) was greater than 100 µM, the TGI (K-562 leukemia) was greater than 100 µM and the TGI (PC-3 prostate) was greater than 100 µM. For the same compound, the TGI (TK-10 renal) was greater than 100 µM, the TGI (M14 melanoma) was greater than 100 µM and the TGI (A498 renal) was 44.8 µM. It also gave a TGI (NCI-H226 lung) of 74.6 µM, a TGI (HT29 colon) of 46.2 µM and a TGI (T-47D breast) greater than 100 µM. It also gave a TGI (HCT-116 colon) greater than 100 µM, a TGI (A549 NSCLC) greater than 100 µM and a TGI (SN12C renal) greater than 100 µM. The TGI (NCI/ADR-RES ovarian) was 70 µM, the TGI (UO-31 renal) was greater than 100 µM and the TGI (EKVX NSCLC) was greater than 100 µM. It also gave a TGI (HOP-92 NSCLC) of 67.3 µM, a TGI (UACC-257 melanoma) greater than 100 µM and a TGI (KM12 colon) of 35.5 µM. The TGI (HS 578T breast) was greater than 100 µM, the TGI (HCT-15 colon) was 50.3 µM and the TGI (SK-MEL-28 melanoma) was greater than 100 µM. It also gave a TGI (SF-268 CNS) greater than 100 µM, a TGI (SK-OV-3 ovarian) of 97.5 µM and a TGI (SK-MEL-5 melanoma) of 35.2 µM. It also gave a TGI (SNB-19 CNS) greater than 100 µM.
